Experimental findings from patent publication US20240059703A1 (AMGEN INC., priority 2021, published 2024) are described below.

Some results are limits rather than exact numbers.

Test [1] deals with MIA PaCa-2 (human pancreatic carcinoma) cells. In words: Cell Viability Assay (CellTiter-Glo), MIA PaCa-2. Type of test: cell-based. As for the experimental part: Serially-diluted compound or DMSO was added to the cells, and plates were incubated at 37° C., 5% CO2 for 72 h. Cell viability was measured using a CellTiter-Glo® Luminescent Cell Viability Assay kit (Promega) according to the manufacturer's protocol. The luminescence signal of treated samples was normalized to DMSO control, and data were analyzed using a 4-parameter logistic model to calculate IC50 values.

For test [2], the system named is A549 (human lung carcinoma) cells. In words: Cell Viability Assay (CellTiter-Glo), A549. Type of test: cell-based. A digest of the protocol:
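Luminescent ATP read-out (CellTiter-Glo) after 72 h compound treatment of cells seeded overnight at 1.67E+04 cells/mL in RPMI 1640, 10% FBS; signal relative to DMSO, IC50 by 4-parameter logistic model.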

Test [3] addresses KRAS G12C (Homo sapiens (Human), UniProt P01116, C118A/G12C). Briefly: 2 h coupled exchange assay. The test is classed as biochemical. The conditions noted are these: Avg 2 h Coupled exchange IC50, 2 h compound pre-incubation. As for the experimental part: The term “2 h coupled exchange assay” or “20 h coupled exchange assay” as used herein refers to the assay described in the Section entitled “BIOLOGICAL EVALUATION.”

Where [4] appears, read: SOS-mediated nucleotide exchange.

Sequence of KRAS G12C (P01116 other isoform, or with tags, fused parts or gaps G12C/C118A): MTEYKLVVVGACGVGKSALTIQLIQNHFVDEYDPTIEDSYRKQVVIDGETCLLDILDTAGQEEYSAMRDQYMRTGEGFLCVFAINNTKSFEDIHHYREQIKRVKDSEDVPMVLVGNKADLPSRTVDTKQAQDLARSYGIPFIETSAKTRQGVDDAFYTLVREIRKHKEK

With `C=CC(=O)N1CC2(CCN(c3nc4c(c(-c5c(C)ccc6cnn(C)c56)c3C#N)C[C@H]3C[C@@H]4C3)C2)C1` [Example 13-110, (1S,9S)-6-(1,6-dimethyl-1H-indazol-7-yl)-4-(2-(2-propenoyl)-2,6-diazaspiro[3.4]octan-6-yl)-3-azatricyclo[7.1.1.0^2,7]undeca-2,4,6-triene-5-carbonitrile], the IC50 is 0.524 µM in test [1] (Homo sapiens, MIA PaCa-2, 72 h); more than 5 µM in test [2] (Homo sapiens, A549, 72 h); 0.073 µM in test [3] (setting [4]).

In the case of `C=CC(=O)N1CC2(CCN(c3nc4c(c(-c5ccccc5C)c3C#N)CCC(c3scnc3C)C4)C2)C1` [Example 23-2, (7R)-4-(2-methylphenyl)-7-(4-methyl-1,3-thiazol-5-yl)-2-(2-(2-propenoyl)-2,6-diazaspiro[3.4]octan-6-yl)-5,6,7,8-tetrahydro-3-quinolinecarbonitrile (7S)-4-(2-methylphenyl)-7-(4-methyl-1,3-thiazol-5-yl)-2-(2-(2-propenoyl)-2,6-diazaspiro[3.4]octan-6-yl)-5,6,7,8-tetrahydro-3-quinolinecarbonitrile], the IC50 in test [1] (Homo sapiens, MIA PaCa-2, 72 h) was determined as 0.164 µM; in test [2] (Homo sapiens, A549, 72 h), 12.6 µM; in test [3], 0.026 µM.

Take `C=CC(=O)N1CC2(CCN(c3nc4c(c(-c5cc(O)cc6ncccc56)c3C#N)C[C@H]3C[C@@H]4C3(C)C)C2)C1` [Example 2-42, (1R,9R)-6-(7-hydroxy-5-quinolinyl)-10,10-dimethyl-4-(2-(2-propenoyl)-2,6-diazaspiro[3,4]octan-6-yl)-3-azatricyclo[7.1.1.0^2,7]undeca-2,4,6-triene-5-carbonitrile]: the IC50 in test [1] (Homo sapiens, MIA PaCa-2, 72 h) was 0.175 µM; in test [2] (Homo sapiens, A549, 72 h), more than 5 µM; in test [3] (setting [4]), 0.028 µM.

Consider `C=CC(=O)N1CC2(CCN(c3cc4c(c(-c5c(C)ccc6[nH]ncc56)c3Cl)OCCC4)C2)C1` [Example 31-1, 1-(6-(7-chloro-8-(5-methyl-1H-indazol-4-yl)-3,4-dihydro-2H-chromen-6-yl)-2,6-diazaspiro[3.4]octan-2-yl)-2-propen-1-one], for which the IC50 in test [1] (Homo sapiens, MIA PaCa-2, 72 h) is 0.034 µM; in test [2] (Homo sapiens, A549, 72 h), more than 5 µM; in test [3] it was 0.076 µM.

Take `C=CC(=O)N1CC2(CCN(c3nc4ccccc4c(-c4c(C)c(C)cc5[nH]ncc45)c3C#N)C2)C1` [Example 2-6, 4-(5,6-dimethyl-1H-indazol-4-yl)-2-(2-(2-propenoyl)-2,6-diazaspiro[3.4]octan-6-yl)-3-quinolinecarbonitrile]: the IC50 was determined as 0.237 µM in test [1] (Homo sapiens, MIA PaCa-2, 72 h); 6.25 µM in test [2] (Homo sapiens, A549, 72 h); 0.056 µM in test [3] (setting [4]).

Turning to `C=CC(=O)N1CC2(CCN(c3nc4c(c(-c5cccc6cc(O)ccc56)n3)CCCC4)C2)C1` [Example 1-21, 1-(6-(4-(6-hydroxy-1-naphthalenyl)-5,6,7,8-tetrahydro-2-quinazolinyl)-2,6-diazaspiro[3.4]octan-2-yl)-2-propen-1-one], the IC50 in test [1] (Homo sapiens, MIA PaCa-2, 72 h) was more than 5 µM; in test [2] (Homo sapiens, A549, 72 h) it was more than 5 µM; in test [3] (setting [4]), 0.435 µM.

As to `C=CC(=O)N1CC2(CCN(c3nc4c(c(-c5ccc(F)cc5F)c3C#N)COC(c3scnc3C)C4)C2)C1` [Example 23-17, (7R)-4-(2,4-difluorophenyl)-7-(4-methyl-1,3-thiazol-5-yl)-2-(2-(2-propenoyl)-2,6-diazaspiro[3.4]octan-6-yl)-7,8-dihydro-5H-pyrano[4,3-b]pyridine-3-carbonitrile (7S)-4-(2,4-difluorophenyl)-7-(4-methyl-1,3-thiazol-5-yl)-2-(2-(2-propenoyl)-2,6-diazaspiro[3.4]octan-6-yl)-7,8-dihydro-5H-pyrano[4,3-b]pyridine-3-carbonitrile], the IC50 in test [1] (Homo sapiens, MIA PaCa-2, 72 h) was 0.707 µM; in test [2] (Homo sapiens, A549, 72 h), more than 5 µM; in test [3], 0.098 µM.

As for `C=CC(=O)N1CC2(CCN(c3nc4c(c(-c5c(C)ccc6[nH]ncc56)c3C#N)C3CC3C4)C2)C1` (stereo not drawn) [Example 13-82], the IC50 in test [1] (Homo sapiens, MIA PaCa-2, 72 h) is 0.462 µM; in test [2] (Homo sapiens, A549, 72 h), more than 5 µM; in test [3] (setting [4]) it was 0.066 µM.

Turning to `C=CC(=O)N1CC2(CCN(c3nc4c(c(-c5cc(O)ccc5C)c3F)C[C@H]3C[C@@H]4C3(C)C)C2)C1` [Example 14-50, 1-(6-((1R,9R)-5-fluoro-6-(5-hydroxy-2-methylphenyl)-10,10-dimethyl-3-azatricyclo[7.1.1.0^2,7]undeca-2,4,6-trien-4-yl)-2,6-diazaspiro[3.4]octan-2-yl)-2-propen-1-one], the IC50 in test [1] (Homo sapiens, MIA PaCa-2, 72 h) is 1.61 µM; in test [2] (Homo sapiens, A549, 72 h), more than 5 µM; in test [3], 0.065 µM.

Consider `C=CC(=O)N1CC2(CCN(c3nc4c(c(-c5cc(N)cc6ccccc56)c3C#N)COC(C)(C)C4)C2)C1` [Example 38-1, 4-(3-amino-1-naphthalenyl)-7,7-dimethyl-2-(2-(2-propenoyl)-2,6-diazaspiro[3.4]octan-6-yl)-7,8-dihydro-5H-pyrano[4,3-b]pyridine-3-carbonitrile], for which the IC50 in test [1] (Homo sapiens, MIA PaCa-2, 72 h) was determined as 0.348 µM; in test [2] (Homo sapiens, A549, 72 h), 12.7 µM; in test [3], 0.407 µM.

For the molecule `C=CC(=O)N1CC2(CCN(c3nc4c(c(-c5c(C)ccc6[nH]ncc56)c3C#N)CC(C3CC3)C4)C2)C1` [Example 13-83, (6R)-6-cyclopropyl-4-(5-methyl-1H-indazol-4-yl)-2-(2-(2-propenoyl)-2,6-diazaspiro[3.4]octan-6-yl)-6,7-dihydro-5H-cyclopenta[b]pyridine-3-carbonitrile|(6S)-6-cyclopropyl-4-(5-methyl-1H-indazol-4-yl)-2-(2-(2-propenoyl)-2,6-diazaspiro[3.4]octan-6-yl)-6,7-dihydro-5H-cyclopenta[b]pyridine-3-carbonitrile], the IC50 in test [1] (Homo sapiens, MIA PaCa-2, 72 h) is more than 5 µM; in test [2] (Homo sapiens, A549, 72 h) it was more than 5 µM; in test [3] (setting [4]), 0.086 µM.

Consider `C=CC(=O)N1CC2(CCN(c3nc4c(c(-c5c(C)ccc6[nH]ncc56)c3C#N)COC3(CCC3)C4)C2)C1` [Example 13-98, 2′-(2-acryloyl-2,6-diazaspiro[3.4]octan-6-yl)-4′-(5-methyl-1H-indazol-4-yl)-5′,8′-dihydrospiro[cyclobutane-1,7′-pyrano[4,3-b]pyridine]-3′-carbonitrile], for which the IC50 was 0.103 µM in test [1] (Homo sapiens, MIA PaCa-2, 72 h); more than 5 µM in test [2] (Homo sapiens, A549, 72 h); 0.051 µM in test [3] (setting [4]).

As for `C=CC(=O)N1CC2(CCN(c3nc4c(c(-c5ccc(F)cc5Cl)c3C#N)CO[C@@H](c3scnc3C)C4)C2)C1` [Example 23-27, (7R)-4-(2-chloro-4-fluorophenyl)-7-(4-methyl-1,3-thiazol-5-yl)-2-(2-(2-propenoyl)-2,6-diazaspiro[3.4]octan-6-yl)-7,8-dihydro-5H-pyrano[4,3-b]pyridine-3-carbonitrile], the IC50 is 0.776 µM in test [1] (Homo sapiens, MIA PaCa-2, 72 h); more than 5 µM in test [2] (Homo sapiens, A549, 72 h); 0.097 µM in test [3].

Take `C=CC(=O)N1CC2(CCN(c3cn4ncnc4c(-c4c(C)ccc5[nH]ncc45)c3C#N)C2)C1` [Example 1-48, 8-(5-methyl-1H-indazol-4-yl)-6-(2-(2-propenoyl)-2,6-diazaspiro[3.4]octan-6-yl)[1,2,4]triazolo[1,5-a]pyridine-7-carbonitrile]: the IC50 in test [1] (Homo sapiens, MIA PaCa-2, 72 h) is more than 5 µM; in test [2] (Homo sapiens, A549, 72 h), more than 5 µM; in test [3] (setting [4]), 0.554 µM.

In the case of `C=CC(=O)N1CC2(CCN(c3nc4c(c(-c5ccccc5OC)c3C#N)CCC(c3scnc3C)=C4)C2)C1` [Example 23-39, 4-(2-methoxyphenyl)-7-(4-methyl-1,3-thiazol-5-yl)-2-(2-(2-propenoyl)-2,6-diazaspiro[3.4]octan-6-yl)-5,6-dihydro-3-quinolinecarbonitrile], the IC50 in test [1] (Homo sapiens, MIA PaCa-2, 72 h) is 2.37 µM; in test [2] (Homo sapiens, A549, 72 h), 7.69 µM; in test [3], 0.394 µM.

As to `C=CC(=O)N1CC2(CCN(c3nc4c(c(-c5ncccc5C)c3C#N)CCC(c3scnc3C)=C4)C2)C1` (single isomer, unassigned) [Example 23-25, (P)-4-(3-methyl-2-pyridinyl)-7-(4-methyl-1,3-thiazol-5-yl)-2-(2-(2-propenoyl)-2,6-diazaspiro[3.4]octan-6-yl)-5,6-dihydro-3-quinolinecarbonitrile], the IC50 is 0.48 µM in test [1] (72 h), more than 5 µM in test [2] (72 h) and 0.196 µM in test [3].

`C=CC(=O)N1CC2(CCN(c3nc4c(c(-c5c(Cl)ccc6[nH]ncc56)c3C#N)COC(C)(C)C4)C2)C1` [Example 13-148, 4-(5-chloro-1H-indazol-4-yl)-7,7-dimethyl-2-(2-(2-propenoyl)-2,6-diazaspiro[3.4]octan-6-yl)-7,8-dihydro-5H-pyrano[4,3-b]pyridine-3-carbonitrile]: the IC50 in test [1] (Homo sapiens, MIA PaCa-2, 72 h) was 0.103 µM; in test [2] (Homo sapiens, A549, 72 h) it was more than 5 µM; in test [3] (setting [4]), 0.026 µM.

For the molecule `C=CC(=O)N1CC2(CCN(c3nc4c(c(-c5ccccc5Cl)c3C#N)CCC(c3ccnn3C)C4)C2)C1` [Example 13-19, (7R)-4-(2-chlorophenyl)-7-(1-methyl-1H-pyrazol-5-yl)-2-(2-(2-propenoyl)-2,6-diazaspiro[3.4]octan-6-yl)-5,6,7,8-tetrahydro-3-quinolinecarbonitrile|(7S)-4-(2-chlorophenyl)-7-(1-methyl-1H-pyrazol-5-yl)-2-(2-(2-propenoyl)-2,6-diazaspiro[3.4]octan-6-yl)-5,6,7,8-tetrahydro-3-quinolinecarbonitrile], the IC50 in test [1] (Homo sapiens, MIA PaCa-2, 72 h) was 0.338 µM; in test [2] (Homo sapiens, A549, 72 h) it was more than 5 µM; in test [3] (setting [4]) it was 0.064 µM.
